Assay results reported in ChEMBL document CHEMBL1201862, “PubChem BioAssay data set” (2004).
Activity calls are given as the source filed them.

What was measured:
Escherichia coli = experiment: microbe, parasite or virus in culture
[1] = molecular target: T1, Adenosylmethionine-8-amino-7-oxononanoate aminotransferase (Mycobacterium tuberculosis, UniProt P9WQ81); experiment: Mycobacterium tuberculosis BioA enzyme inhibitor Measured in Biochemical System Using Plate Reader - 2163-02_Inhibitor_Dose_CherryPick_Activity.; format: functional, Mycobacterium tuberculosis UT205
T1 sequence (P9WQ81 whole entry): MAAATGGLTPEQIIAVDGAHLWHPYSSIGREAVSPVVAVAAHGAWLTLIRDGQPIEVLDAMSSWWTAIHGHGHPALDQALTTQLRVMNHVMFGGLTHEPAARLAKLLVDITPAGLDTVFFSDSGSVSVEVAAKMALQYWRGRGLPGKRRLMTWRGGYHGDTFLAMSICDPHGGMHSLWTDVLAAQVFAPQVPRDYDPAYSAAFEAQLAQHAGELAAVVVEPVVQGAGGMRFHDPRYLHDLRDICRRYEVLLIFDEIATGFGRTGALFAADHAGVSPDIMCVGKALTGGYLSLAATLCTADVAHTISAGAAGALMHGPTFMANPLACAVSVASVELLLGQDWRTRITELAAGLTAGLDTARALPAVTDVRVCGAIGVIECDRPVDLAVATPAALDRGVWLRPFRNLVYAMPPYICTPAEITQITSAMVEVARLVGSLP

[2] = molecular target: Photoreceptor-specific nuclear receptor (Homo sapiens, UniProt Q9Y5X4); format: functional, cell-based;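 note: CHO-S cells with Gal4-NCOR and VP16-NR2E3 two-hybrid luciferase reporter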
[3] = HEK-293T viability loss after treatment – luminescence, T-cell screen hits, cytotoxicity control for TCR NF-kB inhibitor project, dose response (AID 489026); format: functional, cell-based;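 note: cells exposed to compound about 14 hours before the viability readout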
[4] = molecular target: T2, Microphthalmia-associated transcription factor (Homo sapiens, UniProt O75030); experiment: reducers of TRPM1 reporter luminescence, concentration series – cell-based, SK-MEL-5, cherry-picked, set 3, MITF inhibitor project, dose response (AID 493073); format: functional;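 note: SK-MEL-5 melanoma cells with luciferase driven by the MITF target TRPM1 promoter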
T2 sequence (O75030 whole entry): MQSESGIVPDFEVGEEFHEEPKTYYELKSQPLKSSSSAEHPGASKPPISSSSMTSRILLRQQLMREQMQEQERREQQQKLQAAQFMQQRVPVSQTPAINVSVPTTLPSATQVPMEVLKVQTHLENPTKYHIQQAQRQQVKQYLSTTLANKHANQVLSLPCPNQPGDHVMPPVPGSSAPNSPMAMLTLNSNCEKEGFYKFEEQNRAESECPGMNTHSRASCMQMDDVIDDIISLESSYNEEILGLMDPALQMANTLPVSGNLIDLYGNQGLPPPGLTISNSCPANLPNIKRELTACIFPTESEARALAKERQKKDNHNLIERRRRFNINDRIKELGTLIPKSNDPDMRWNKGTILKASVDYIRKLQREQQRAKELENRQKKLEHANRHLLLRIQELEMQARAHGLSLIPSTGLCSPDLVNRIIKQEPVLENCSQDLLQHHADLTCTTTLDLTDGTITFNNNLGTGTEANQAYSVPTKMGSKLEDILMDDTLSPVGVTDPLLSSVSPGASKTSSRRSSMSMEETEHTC

[5] = Trypanosoma cruzi growth suppression in host cells – NIH3T3 host cells, beta-gal luminescence, confirmation (AID 2044); format: functional, cell-based;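 note: intracellular parasites grown in NIH/3T3 mouse fibroblasts as host cells; luminescent beta-galactosidase reporter signal from transgenic T. cruzi replicating inside host cells; inhibitors lower the luminescence signal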
[6] = NIH3T3 cell viability loss – ATP luminescence, mouse fibroblasts, counter-screen, dose response (AID 2010); format: functional, cell-based;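 note: cells exposed to compound for about 90 hours before reading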
Cytochrome P450 2C19 = Cytochrome P450 2C19 (Homo sapiens, UniProt P33261); experiment: Cytochrome panel assay with activity outcomes. Panel member name: p450-cyp2c19 Compounds with AC50 equal or less than 10 uM are considered active; format: functional; conditions: read-out: AC50
Cytochrome P450 2C9 = Cytochrome P450 2C9 (Homo sapiens, UniProt P11712)
[7] = molecular target: Induced myeloid leukemia cell differentiation protein Mcl-1 (Homo sapiens, UniProt Q07820); format: functional
[8] = molecular target: 26S proteasome non-ATPase regulatory subunit 14 (Homo sapiens, UniProt O00487); experiment: inhibition of proteasome subunit RPN11 – biochemical, fluorescence polarization, uHTS hits, confirmation (AID 602368); format: functional
[9] = molecular target: 72 kDa type IV collagenase (Homo sapiens, UniProt P08253); experiment: Dose Response validation of uHTS RPN11 inhibitor hits using a MMP-2 Fluorescence assay.; format: functional
Prothrombin = Prothrombin (Bos taurus, UniProt P00735); experiment: thrombin protease inhibitors – biochemical, fluorescence polarization, uHTS hits, dose response (AID 602369); format: functional
Vero = experiment: cells; format: functional, cell-based; conditions: Chlorocebus sabaeus
[10] = viability of uninfected HEp-2 cells – cell-based, HTS, cytotoxicity control for RSV inhibitor project, dose response (AID 2410); format: functional; conditions: human respiratory syncytial virus
[11] = molecular target: Glucose-6-phosphate 1-dehydrogenase (Homo sapiens, UniProt P11413); experiment: inhibition of Homo sapiens G6PD, dose series – biochemical, fluorescence, selectivity assay for P. falciparum G6PD inhibitor project, dose response (AID 504792); format: functional
Cytochrome P450 3A4 [12] = molecular target: T3, Cytochrome P450 3A4 (Homo sapiens, UniProt P08684)
[13] = molecular target: Voltage-gated inwardly rectifying potassium channel KCNH2 (Homo sapiens, UniProt Q12809); conditions: Potency;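 note: confirmatory quantitative high-throughput screen measuring inhibition of hERG channel activity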
Cytochrome P450 3A4 [14] = molecular target: T3, Cytochrome P450 3A4; conditions: Potency
Large T antigen = Large T antigen (Simian virus 40, UniProt P03070); format: functional, Betapolyomavirus macacae;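 note: Confirmatory-stage PubChem screen for compounds that inhibit SV40 T antigen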
Large T antigen, sequence (P03070 whole entry): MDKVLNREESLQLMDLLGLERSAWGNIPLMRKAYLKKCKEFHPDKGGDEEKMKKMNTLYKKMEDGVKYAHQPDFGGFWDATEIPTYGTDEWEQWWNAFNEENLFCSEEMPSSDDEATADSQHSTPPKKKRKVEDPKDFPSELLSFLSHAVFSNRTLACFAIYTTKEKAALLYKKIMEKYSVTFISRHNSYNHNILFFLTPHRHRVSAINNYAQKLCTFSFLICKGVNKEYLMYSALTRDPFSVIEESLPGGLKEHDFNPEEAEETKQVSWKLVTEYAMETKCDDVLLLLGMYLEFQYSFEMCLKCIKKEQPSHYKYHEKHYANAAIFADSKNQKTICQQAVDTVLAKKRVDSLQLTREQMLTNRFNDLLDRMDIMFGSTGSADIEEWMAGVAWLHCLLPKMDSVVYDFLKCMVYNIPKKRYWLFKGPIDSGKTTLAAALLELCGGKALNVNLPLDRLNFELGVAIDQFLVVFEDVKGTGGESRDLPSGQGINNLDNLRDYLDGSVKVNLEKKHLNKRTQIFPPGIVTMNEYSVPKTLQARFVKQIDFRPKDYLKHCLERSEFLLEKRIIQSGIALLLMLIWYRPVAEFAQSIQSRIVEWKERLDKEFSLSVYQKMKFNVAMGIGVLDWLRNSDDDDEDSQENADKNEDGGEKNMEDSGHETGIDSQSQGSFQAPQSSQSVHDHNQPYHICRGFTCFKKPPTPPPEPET

T3 sequence (P08684 whole entry): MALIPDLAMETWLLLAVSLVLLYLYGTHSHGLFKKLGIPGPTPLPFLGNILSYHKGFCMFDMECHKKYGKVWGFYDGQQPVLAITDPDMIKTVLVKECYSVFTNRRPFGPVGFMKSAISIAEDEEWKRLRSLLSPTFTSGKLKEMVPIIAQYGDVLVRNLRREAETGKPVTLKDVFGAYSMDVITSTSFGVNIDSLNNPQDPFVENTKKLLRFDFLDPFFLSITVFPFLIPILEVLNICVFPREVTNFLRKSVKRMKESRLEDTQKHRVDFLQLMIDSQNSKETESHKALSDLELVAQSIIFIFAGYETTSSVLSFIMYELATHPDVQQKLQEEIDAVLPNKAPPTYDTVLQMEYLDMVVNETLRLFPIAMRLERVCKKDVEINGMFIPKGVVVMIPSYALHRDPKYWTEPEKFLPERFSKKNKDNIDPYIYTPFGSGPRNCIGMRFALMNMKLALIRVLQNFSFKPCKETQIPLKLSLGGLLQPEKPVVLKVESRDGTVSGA
Voltage-gated inwardly rectifying potassium channel KCNH2, sequence (Q12809 whole entry): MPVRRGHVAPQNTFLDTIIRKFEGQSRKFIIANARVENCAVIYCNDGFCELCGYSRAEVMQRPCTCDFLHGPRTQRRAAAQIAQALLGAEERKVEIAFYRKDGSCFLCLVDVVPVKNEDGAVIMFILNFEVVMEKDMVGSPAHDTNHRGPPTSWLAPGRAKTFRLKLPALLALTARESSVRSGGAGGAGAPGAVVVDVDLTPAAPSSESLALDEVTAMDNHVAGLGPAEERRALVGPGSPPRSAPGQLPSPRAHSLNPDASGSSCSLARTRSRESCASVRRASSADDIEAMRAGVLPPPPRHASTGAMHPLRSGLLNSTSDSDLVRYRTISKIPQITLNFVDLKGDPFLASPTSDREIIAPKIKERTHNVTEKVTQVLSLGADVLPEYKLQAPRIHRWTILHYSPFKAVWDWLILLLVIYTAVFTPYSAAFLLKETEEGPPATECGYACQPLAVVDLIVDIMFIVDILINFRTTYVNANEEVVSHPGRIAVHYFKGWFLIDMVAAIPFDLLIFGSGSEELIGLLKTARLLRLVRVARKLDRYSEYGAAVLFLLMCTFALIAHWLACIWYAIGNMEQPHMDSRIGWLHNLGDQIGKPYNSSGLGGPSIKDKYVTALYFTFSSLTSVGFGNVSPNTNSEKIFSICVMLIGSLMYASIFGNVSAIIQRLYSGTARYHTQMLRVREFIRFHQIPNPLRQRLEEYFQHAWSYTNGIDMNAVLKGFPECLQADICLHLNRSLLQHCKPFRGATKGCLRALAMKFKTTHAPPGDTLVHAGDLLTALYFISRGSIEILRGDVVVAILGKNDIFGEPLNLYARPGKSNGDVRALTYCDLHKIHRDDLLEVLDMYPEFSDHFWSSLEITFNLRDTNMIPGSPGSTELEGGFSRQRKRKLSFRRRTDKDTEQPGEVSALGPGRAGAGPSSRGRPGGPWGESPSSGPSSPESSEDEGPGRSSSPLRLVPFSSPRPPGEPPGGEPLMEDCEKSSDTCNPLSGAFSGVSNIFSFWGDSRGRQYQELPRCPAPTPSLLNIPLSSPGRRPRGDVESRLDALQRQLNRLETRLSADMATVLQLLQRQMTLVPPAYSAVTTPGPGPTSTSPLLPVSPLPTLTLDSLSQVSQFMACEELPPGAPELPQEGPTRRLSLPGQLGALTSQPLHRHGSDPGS
Induced myeloid leukemia cell differentiation protein Mcl-1, sequence (Q07820 whole entry): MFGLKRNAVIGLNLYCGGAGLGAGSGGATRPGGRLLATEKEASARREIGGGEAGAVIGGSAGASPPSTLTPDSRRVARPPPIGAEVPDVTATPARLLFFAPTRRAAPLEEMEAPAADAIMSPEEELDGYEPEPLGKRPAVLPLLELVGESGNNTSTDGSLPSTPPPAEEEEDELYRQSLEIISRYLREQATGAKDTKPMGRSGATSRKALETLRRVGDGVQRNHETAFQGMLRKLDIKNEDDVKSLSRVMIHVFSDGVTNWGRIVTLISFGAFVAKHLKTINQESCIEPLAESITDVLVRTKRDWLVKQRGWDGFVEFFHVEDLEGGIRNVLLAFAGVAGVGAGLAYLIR
72 kDa type IV collagenase, sequence (P08253 whole entry): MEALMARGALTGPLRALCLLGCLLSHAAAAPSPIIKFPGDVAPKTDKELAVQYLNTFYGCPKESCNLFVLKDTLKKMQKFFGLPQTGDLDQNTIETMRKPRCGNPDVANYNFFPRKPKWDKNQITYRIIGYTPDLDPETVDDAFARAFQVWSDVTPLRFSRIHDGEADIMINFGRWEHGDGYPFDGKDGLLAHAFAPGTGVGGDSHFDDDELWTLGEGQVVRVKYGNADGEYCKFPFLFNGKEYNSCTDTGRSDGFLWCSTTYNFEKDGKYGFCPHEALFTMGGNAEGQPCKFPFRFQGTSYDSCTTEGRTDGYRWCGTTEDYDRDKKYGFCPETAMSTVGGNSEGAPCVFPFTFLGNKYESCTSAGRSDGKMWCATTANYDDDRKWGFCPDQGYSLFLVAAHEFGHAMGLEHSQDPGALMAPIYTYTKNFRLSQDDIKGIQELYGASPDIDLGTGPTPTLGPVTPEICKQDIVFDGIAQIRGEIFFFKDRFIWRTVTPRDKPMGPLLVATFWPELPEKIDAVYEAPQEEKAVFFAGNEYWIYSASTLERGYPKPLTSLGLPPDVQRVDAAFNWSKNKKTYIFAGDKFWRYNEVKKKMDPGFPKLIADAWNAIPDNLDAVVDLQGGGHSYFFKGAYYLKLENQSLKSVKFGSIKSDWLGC
26S proteasome non-ATPase regulatory subunit 14, sequence (O00487 whole entry): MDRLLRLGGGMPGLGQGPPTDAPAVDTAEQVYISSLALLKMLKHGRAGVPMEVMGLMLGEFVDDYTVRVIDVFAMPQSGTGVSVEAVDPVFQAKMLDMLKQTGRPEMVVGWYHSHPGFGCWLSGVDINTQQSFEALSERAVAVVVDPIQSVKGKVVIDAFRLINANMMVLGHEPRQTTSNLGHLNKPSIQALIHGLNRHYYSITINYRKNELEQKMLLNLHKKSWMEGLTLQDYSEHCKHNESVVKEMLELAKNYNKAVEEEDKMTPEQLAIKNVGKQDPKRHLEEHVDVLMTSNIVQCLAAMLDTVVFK
Cytochrome P450 2C19, sequence (P33261 whole entry): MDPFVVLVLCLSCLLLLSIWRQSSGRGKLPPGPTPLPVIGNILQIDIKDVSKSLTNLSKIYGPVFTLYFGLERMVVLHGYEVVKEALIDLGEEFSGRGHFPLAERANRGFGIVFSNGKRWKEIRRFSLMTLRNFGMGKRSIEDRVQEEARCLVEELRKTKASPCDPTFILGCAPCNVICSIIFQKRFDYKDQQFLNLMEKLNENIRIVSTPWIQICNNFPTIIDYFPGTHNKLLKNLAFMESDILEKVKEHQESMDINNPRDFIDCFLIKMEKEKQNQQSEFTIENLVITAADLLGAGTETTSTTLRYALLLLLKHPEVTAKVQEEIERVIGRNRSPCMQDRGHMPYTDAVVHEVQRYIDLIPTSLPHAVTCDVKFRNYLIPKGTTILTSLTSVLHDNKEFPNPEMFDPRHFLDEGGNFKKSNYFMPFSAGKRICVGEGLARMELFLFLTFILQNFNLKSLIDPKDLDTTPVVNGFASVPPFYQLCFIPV
Photoreceptor-specific nuclear receptor, sequence (Q9Y5X4 whole entry, the tested form may be a part): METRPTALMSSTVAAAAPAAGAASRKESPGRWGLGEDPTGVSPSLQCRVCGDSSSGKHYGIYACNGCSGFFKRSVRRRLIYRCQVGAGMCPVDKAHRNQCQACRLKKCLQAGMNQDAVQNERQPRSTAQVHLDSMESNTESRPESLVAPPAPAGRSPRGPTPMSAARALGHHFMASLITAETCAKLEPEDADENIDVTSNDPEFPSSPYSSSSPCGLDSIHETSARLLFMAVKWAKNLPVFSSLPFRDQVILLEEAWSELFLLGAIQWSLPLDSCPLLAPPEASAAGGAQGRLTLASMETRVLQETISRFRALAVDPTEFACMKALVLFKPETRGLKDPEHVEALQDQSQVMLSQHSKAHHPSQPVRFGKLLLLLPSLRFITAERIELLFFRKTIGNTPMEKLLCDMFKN

CC(Oc1ccc2c(-c3ccccc3)cc(=O)oc2c1)C(=O)NCCCN1CCOCC1 (stereo unspecified)
AC50 (Escherichia coli): 62.1 µM (active)

Cc1nc2nc(SCC(=O)N3CCOCC3)nn2c(C)c1Cc1c(F)cccc1Cl
AC50 [1]: 0.217 µM (active)

CCC(Sc1nc(C)cc(=O)[nH]1)C(=O)Nc1sc2c(c1C#N)CCCC2 (stereo unspecified)
IC50 [2]: 5.4 µM (active)

N#C/C(=C\c1ccc(OCc2ccc(C(=O)O)cc2)cc1)C(=O)N1CCOCC1
IC50 [3]: > 80 µM (inactive) | AC50 [4]: 1.19 µM (active)

CCOC(=O)c1c(C)[n+](-c2ccc(C)cc2)c(CC)c2cc(OC)c(OC)cc12
EC50 [5]: 0.292 µM (active) | EC50 [6]: > 60 µM (not active) | AC50 [1]: 4.21 µM (active)

Cc1ccc(NC(=O)C2CCN(S(=O)(=O)c3c(C)n[nH]c3C)CC2)nc1
AC50 (Cytochrome P450 2C19): 39.8 µM (inconclusive) | AC50 (Cytochrome P450 2C9): inconclusive

CS(=O)(=O)C1=NSC2=NC(=O)/C(=C\c3cccn3-c3ccccc3Cl)C(=N)N21
IC50 [7]: 4.35 µM (active) | IC50 [8]: 30 µM (active) | IC50 [9]: > 100 µM (inactive) | IC50 (Prothrombin): 52.6 µM (active)

O=c1c2cccnc2[nH]c(=S)n1CCCN1CCN(c2ccccc2F)CC1
IC50 (Vero): 24.6 µM (active)

CCOC(=O)c1c(N/C=C(\C#N)c2nc(-c3ccc(OC(C)=O)cc3)cs2)sc2c1CCC2
AC50 (Escherichia coli): 12.3 µM (active)

C=CCNc1ccccc1S(=O)(=O)NCc1ccccc1
AC50 (Escherichia coli): > 150 µM (inactive)

COC(=O)C[C@@H]1C[C@@H]2c3cc(NC(=O)c4cccnc4)ccc3O[C@@H]2[C@@H](CO)O1
AC50 [1]: 13.6 µM (active)

CCc1ccc(OCC(=O)N/N=C/c2cc([N+](=O)[O-])ccc2N2CCOCC2)cc1
CC50 [10]: > 50 µM (active) | IC50 [11]: > 80 µM (inactive)

O=c1onc2n1-c1cc(Br)ccc1OC2
AC50 (Cytochrome P450 3A4 [12]): 20 µM (inconclusive) | AC50 [13]: 5.62 µM (inconclusive)

COc1ccc(C(=O)c2ccc(O)cc2)c(O)c1O [2,3,4'-TRIHYDROXY-4-METHOXYBENZOPHENONE]
AC50 (Cytochrome P450 3A4 [14]): 25.1 µM (inconclusive)

O=C(O)/C=C/c1ccc(O)c(O)c1 [CAFFEIC ACID]
IC50 (Large T antigen): 7.3 µM (active) | AC50 (Cytochrome P450 3A4 [14]): 25.1 µM (inconclusive) | AC50 [13]: 2.51 µM (inconclusive)
